Assay results published in PubChem BioAssay (NCI).
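Briefly, cells in 96-well plates were exposed to five compound concentrations for 48 h, and endpoints were estimated by linear interpolation. Here, GI50 denotes the concentration required for 50% inhibition of growth. Definition used: TGI = concentration required for complete inhibition of growth.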

Columns and labels:
Experiment in all cases: growth of human tumour cells (NCI), 48 h
[1] = test system: HOP-92 NSCLC
[2] = test system: MALME-3M melanoma
[3] = test system: UO-31 renal
[4] = test system: OVCAR-3 ovarian
[5] = test system: SNB-75 CNS
[6] = test system: SK-MEL-5 melanoma
[7] = test system: U251 CNS
[8] = test system: OVCAR-8 ovarian
[9] = test system: NCI-H23 lung
[10] = test system: IGROV1 ovarian
[11] = test system: HT29 colon
[12] = test system: NCI-H460 lung
[13] = test system: RXF 393 renal
[14] = test system: HCT-15 colon
[15] = test system: OVCAR-5 ovarian
[16] = test system: RPMI-8226 leukemia
[17] = test system: LOX IMVI melanoma
[18] = test system: MDA-MB-435
[19] = test system: BT-549 breast
[20] = test system: SK-MEL-28 melanoma
[21] = test system: T-47D breast
[22] = test system: MCF7 breast
[23] = test system: SW-620 colon
[24] = test system: SR leukemia
[25] = test system: M14 melanoma
[26] = test system: CAKI-1 renal
[27] = test system: K-562 leukemia
[28] = test system: SN12C renal
[29] = test system: 786-0 renal
[30] = test system: NCI-H522 lung
[31] = test system: PC-3 prostate
[32] = test system: SF-539 CNS
[33] = test system: HS 578T breast
[34] = test system: KM12 colon
[35] = test system: MDA-MB-231 breast
[36] = test system: HL-60(TB) leukemia
[37] = test system: A498 renal
[38] = test system: UACC-257 melanoma
[39] = test system: SF-268 CNS
[40] = test system: NCI-H226 lung
[41] = test system: A549 NSCLC
[42] = test system: COLO 205 colon
[43] = test system: HOP-62 NSCLC
[44] = test system: UACC-62 melanoma
[45] = test system: OVCAR-4 ovarian
[46] = test system: SF-295 CNS
[47] = test system: SNB-19 CNS
[48] = test system: ACHN renal
[49] = test system: HCT-116 colon
[50] = test system: DU-145 prostate
[51] = test system: MOLT-4 leukemia
[52] = test system: CCRF-CEM leukemia
[53] = test system: MDA-MB-468 breast
[54] = test system: SK-OV-3 ovarian
[55] = test system: HCC-2998 colon
[56] = test system: SK-MEL-2 melanoma
[57] = test system: TK-10 renal
[58] = test system: EKVX NSCLC
[59] = test system: NCI/ADR-RES ovarian

Structure (SMILES): COC(=O)CNC(=O)COc1c(OC)c(OC)cc2oc(-c3cccc(C(=O)Nc4ccc(Cl)cc4)c3)cc(=O)c12
- GI50 [1]: 4.04 µM
- TGI [1]: 25.9 µM
- GI50 [2]: 4.75 µM
- TGI [2]: 17.7 µM
- GI50 [3]: 13.8 µM
- TGI [3]: 26.7 µM
- GI50 [4]: 12.4 µM
- TGI [4]: 37.5 µM
- GI50 [5]: 11.9 µM
- TGI [5]: 37.4 µM
- GI50 [6]: 3.75 µM
- TGI [6]: 14.7 µM
- GI50 [7]: 4.82 µM
- TGI [7]: 16.5 µM
- GI50 [8]: 3.64 µM
- TGI [8]: 11.8 µM
- GI50 [9]: 7.19 µM
- TGI [9]: 20 µM
- GI50 [10]: 11.4 µM
- TGI [10]: 24.8 µM
- GI50 [11]: 6.79 µM
- TGI [11]: > 100 µM
- GI50 [12]: 4.03 µM
- TGI [12]: 15.1 µM
- GI50 [13]: 3.54 µM
- TGI [13]: 14.9 µM
- GI50 [14]: 14.8 µM
- TGI [14]: > 100 µM
- GI50 [15]: 7.2 µM
- TGI [15]: 40.1 µM
- GI50 [16]: 6.51 µM
- TGI [16]: > 100 µM
- GI50 [17]: 5.02 µM
- TGI [17]: 19.5 µM
- GI50 [18]: 6.57 µM
- TGI [18]: 21.9 µM
- GI50 [19]: 3.05 µM
- TGI [19]: 12.3 µM
- GI50 [20]: 5.9 µM
- TGI [20]: 18.9 µM
- GI50 [21]: 8.16 µM
- TGI [21]: 31.1 µM
- GI50 [22]: 6.05 µM
- TGI [22]: 23.9 µM
- GI50 [23]: 14 µM
- TGI [23]: 69.7 µM
- GI50 [24]: 9.98 µM
- TGI [24]: > 100 µM
- GI50 [25]: 7.98 µM
- TGI [25]: 25 µM
- GI50 [26]: 18.9 µM
- TGI [26]: 41.6 µM
- GI50 [27]: 25.6 µM
- TGI [27]: > 100 µM
- GI50 [28]: 4.28 µM
- TGI [28]: 17 µM
- GI50 [29]: 5.19 µM
- TGI [29]: 17.2 µM
- GI50 [30]: 7.22 µM
- TGI [30]: 20.1 µM
- GI50 [31]: 10.3 µM
- TGI [31]: 33.7 µM
- GI50 [32]: 8.6 µM
- TGI [32]: 20.9 µM
- GI50 [33]: 4.28 µM
- TGI [33]: 28.5 µM
- GI50 [34]: 27.5 µM
- TGI [34]: > 100 µM
- GI50 [35]: 3.57 µM
- TGI [35]: 13 µM
- GI50 [36]: 13.3 µM
- TGI [36]: > 100 µM
- GI50 [37]: 16.3 µM
- TGI [37]: 34.5 µM
- GI50 [38]: 7.35 µM
- TGI [38]: 24.9 µM
- GI50 [39]: 15.1 µM
- TGI [39]: 42.9 µM
- GI50 [40]: 4.01 µM
- TGI [40]: 27.6 µM
- GI50 [41]: 7.25 µM
- TGI [41]: 20.6 µM
- GI50 [42]: 4.19 µM
- TGI [42]: 17.8 µM
- GI50 [43]: 3.56 µM
- TGI [43]: 11.5 µM
- GI50 [44]: 6.1 µM
- TGI [44]: 19.4 µM
- GI50 [45]: 2.95 µM
- TGI [45]: 10.8 µM
- GI50 [46]: 13.9 µM
- TGI [46]: 26.9 µM
- GI50 [47]: 10.6 µM
- TGI [47]: 22.4 µM
- GI50 [48]: 5.84 µM
- TGI [48]: 18.7 µM
- GI50 [49]: 13.9 µM
- TGI [49]: 48.5 µM
- GI50 [50]: 10.6 µM
- TGI [50]: 28.3 µM
- GI50 [51]: > 100 µM
- TGI [51]: > 100 µM
- GI50 [52]: > 100 µM
- TGI [52]: > 100 µM
- GI50 [53]: 27.2 µM
- TGI [53]: > 100 µM
- GI50 [54]: 11.1 µM
- TGI [54]: 23.6 µM
- GI50 [55]: 15.4 µM
- TGI [55]: 70.8 µM
- GI50 [56]: 10.1 µM
- TGI [56]: 25 µM
- GI50 [57]: 16.1 µM
- TGI [57]: 34.6 µM
- GI50 [58]: 12.4 µM
- TGI [58]: 30.1 µM
- GI50 [59]: 9.62 µM
- TGI [59]: 73.4 µM
